Assay results published in patent US20190055279A1, “NOVEL POLYPEPTIDES WITH IMPROVED PROTEOLYTIC STABILITY, AND METHODS OF PREPARING AND USING SAME” (TUFTS UNIVERSITY, priority 2015, published 2019).
Read-outs that look alike come from different tables or passages of the source.

Biological target: T1, GLP-1R (Homo sapiens, UniProt P43220)
T1 construct: expressed in transfected cells; host or cells: HEK293
Experiment: GLP-1R agonist assay: CRE6x-LUC luciferase reporter in transiently transfected HEK293 cells
Format: cell-based
Procedure: Briefly, HEK293 cells were plated at a density of 2−3×10^3 cells per well onto clear-bottom, white, 96-well plates and grown for 2 days to ˜80% confluency. Cells were then transiently transfected by using Lipofectamine reagent (Invitrogen) with cDNA encoding (1) a GPCR (or empty expression vector); (ii) a cAMP-responsive element-luciferase reporter gene (CRE6X-luc), and (iv) β-galactosidase as a control. Cells were incubated with or without the selected peptide agonist in serum-free medium for 6 h. Luciferase activity was quantified by using Steadylite reagent (Perkin-Elmer). A β-galactosidase assay then was performed after adding the enzyme substrate 2-nitrophenyl β-d-galactopyranoside.
Cellular assays for receptor binding and intracellular signaling were carried out with the compounds of the invention. Briefly, HEK 293 cells were transiently transfected with cDNAs encoding (i) GLP-1R (or the empty expression vector), (ii) the CRE6x-LUC reporter gene (which senses cAMP production triggered by receptor stimulation), and (iii) β-galactosidase (as a control for transfection efficiency). After transfection for 24 h, cells were incubated with a peptide at various concentrations (or control/blank) in serum-free medium for 6 h. The cells were then lysed, SteadyLite reagent (PerkinElmer) is added, and luciferase activity is measured in a TopCount NXT HTS plate luminometer. After further incubation with a chromogenic substrate (2-nitrophenyl β-D-galactopyranoside), optical density at 420 nm is determined by spectrophotometry, as a control to correct for interwell transfection variability. Sigmoidal concentration-response curves of GLP-1R ligand activity is calculated to determine potency.
Plotting concentration versus the luciferase activity yielded quantitative parameters for combined binding (potency) and signaling (efficacy) in a single step. […] DPP4 treated peptides: 10 μl of 0.26 mM peptide were incubated with 2 μL DPP4 in buffer ±DMSO for 18 hrs. Control peptides: 10 μl of 0.26 mM peptide was added to buffer ±DMSO. The final DMSO concentration was the same for all peptides and all peptides were diluted to 0.26 mM concentrations for the DPP4 assay.

[1] = Receptor GLP-1R, agonist potency, read-out: EC50

T1 sequence (P43220 24-463, species assumed): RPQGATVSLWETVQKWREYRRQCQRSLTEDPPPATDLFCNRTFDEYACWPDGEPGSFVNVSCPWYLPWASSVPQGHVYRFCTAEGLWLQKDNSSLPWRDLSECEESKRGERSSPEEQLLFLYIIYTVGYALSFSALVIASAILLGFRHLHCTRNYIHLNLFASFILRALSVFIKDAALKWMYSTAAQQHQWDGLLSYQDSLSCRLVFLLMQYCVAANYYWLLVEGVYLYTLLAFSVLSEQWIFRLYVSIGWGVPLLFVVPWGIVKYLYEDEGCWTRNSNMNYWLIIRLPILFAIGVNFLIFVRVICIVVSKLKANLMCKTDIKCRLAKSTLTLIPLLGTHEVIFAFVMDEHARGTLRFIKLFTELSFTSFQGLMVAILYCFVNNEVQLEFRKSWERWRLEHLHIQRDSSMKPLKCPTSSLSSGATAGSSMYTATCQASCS

| Compound | EC50 [1] | EC50 |
| --- | --- | --- |
| CCN[C@@H](Cc1c[nH]cn1)C(=O)N[C@@H](C)C(=O)N[C@@H](CCC(=O)O)C(=O)NCC(=O)N[C@H](C(=O)N[C@@H](Cc1ccccc1)C(=O)N[C@H](C(=O)N[C@@H](CO)C(=O)N[C@@H](CC(=O)O)C(=O)N[C@H](C(=O)N[C@@H](CO)C(=O)N[C@@H](CO)C(=O)N[C@@H](Cc1ccc(O)cc1)C(=O)N[C@@H](CC(C)C)C(=O)N[C@@H](CCC(=O)O)C(=O)NCC(=O)N[C@@H](CCC(N)=O)C(=O)N[C@@H](C)C(=O)N[C@@H](C)C(=O)N[C@@H](CCCCN)C(=O)N[C@@H](CCC(=O)O)C(=O)N[C@@H](Cc1ccccc1)C(=O)N[C@H](C(=O)N[C@@H](C)C(=O)N[C@@H](Cc1c[nH]c2ccccc12)C(=O)N[C@@H](CC(C)C)C(=O)N[C@H](C(=O)N[C@@H](CCCCN)C(=O)NCC(=O)N[C@@H](CCCNC(=N)N)C(N)=O)C(C)C)[C@@H](C)CC)C(C)C)[C@@H](C)O)[C@@H](C)O | 6.4 pM |  |
| CC[C@H](C)[C@H](NC(=O)[C@H](Cc1ccccc1)NC(=O)[C@H](CCC(=O)O)NC(=O)[C@H](CCCCN)NC(=O)[C@H](C)NC(=O)[C@H](C)NC(=O)[C@H](CCC(N)=O)NC(=O)CNC(=O)[C@H](CCC(=O)O)NC(=O)[C@H](CC(C)C)NC(=O)[C@H](Cc1ccc(O)cc1)NC(=O)[C@H](CO)NC(=O)[C@H](CO)NC(=O)[C@@H](NC(=O)[C@H](CC(=O)O)NC(=O)[C@H](CO)NC(=O)[C@@H](NC(=O)[C@H](Cc1ccccc1)NC(=O)[C@@H](NC(=O)CNC(=O)[C@H](CCC(=O)O)NC(=O)[C@H](C)NC(=O)[C@H](Cc1c[nH]cn1)NC[C@H](C)N)[C@@H](C)O)[C@@H](C)O)C(C)C)C(=O)N[C@@H](C)C(=O)N[C@@H](Cc1c[nH]c2ccccc12)C(=O)N[C@@H](CC(C)C)C(=O)N[C@H](C(=O)N[C@@H](CCCCN)C(=O)NCC(=O)N[C@@H](CCCNC(=N)N)C(N)=O)C(C)C |  | 2.6 pM |
| CC[C@H](C)[C@H](NC(=O)[C@H](Cc1ccccc1)NC(=O)[C@H](CCC(=O)O)NC(=O)[C@H](CCCCN)NC(=O)[C@H](C)NC(=O)[C@H](C)NC(=O)[C@H](CCC(N)=O)NC(=O)CNC(=O)[C@H](CCC(=O)O)NC(=O)[C@H](CC(C)C)NC(=O)[C@H](Cc1ccc(O)cc1)NC(=O)[C@H](CO)NC(=O)[C@H](CO)NC(=O)[C@@H](NC(=O)[C@H](CC(=O)O)NC(=O)[C@H](CO)NC(=O)[C@@H](NC(=O)[C@H](Cc1ccccc1)NC(=O)[C@@H](NC(=O)CNC(=O)[C@H](CCC(=O)O)NC(=O)[C@H](C)NC(=O)[C@H](Cc1c[nH]cn1)NCc1ccc(C2(C(F)(F)F)N=N2)cc1)[C@@H](C)O)[C@@H](C)O)C(C)C)C(=O)N[C@@H](C)C(=O)N[C@@H](Cc1c[nH]c2ccccc12)C(=O)N[C@@H](CC(C)C)C(=O)N[C@H](C(=O)N[C@@H](CCCCN)C(=O)NCC(=O)N[C@@H](CCCNC(=N)N)C(N)=O)C(C)C | 123 pM |  |
| CC[C@H](C)[C@H](NC(=O)[C@H](Cc1ccccc1)NC(=O)[C@H](CCC(=O)O)NC(=O)[C@H](CCCCN)NC(=O)[C@H](C)NC(=O)[C@H](C)NC(=O)[C@H](CCC(N)=O)NC(=O)CNC(=O)[C@H](CCC(=O)O)NC(=O)[C@H](CC(C)C)NC(=O)[C@H](Cc1ccc(O)cc1)NC(=O)[C@H](CO)NC(=O)[C@H](CO)NC(=O)[C@@H](NC(=O)[C@H](CC(=O)O)NC(=O)[C@H](CO)NC(=O)[C@@H](NC(=O)[C@H](Cc1ccccc1)NC(=O)[C@@H](NC(=O)CNC(=O)[C@H](CCC(=O)O)NC(=O)[C@H](C)NC(=O)[C@H](Cc1c[nH]cn1)NC[C@@H](O)[C@@H](O)[C@H](O)[C@H](O)CO)[C@@H](C)O)[C@@H](C)O)C(C)C)C(=O)N[C@@H](C)C(=O)N[C@@H](Cc1c[nH]c2ccccc12)C(=O)N[C@@H](CC(C)C)C(=O)N[C@H](C(=O)N[C@@H](CCCCN)C(=O)NCC(=O)N[C@@H](CCCNC(=N)N)C(N)=O)C(C)C | 3200 pM |  |

More lines, in order of falling EC50 [1], values ahead:

| EC50 [1] | Compound | EC50 |
| --- | --- | --- |
| 4.4 pM | CC[C@H](C)[C@H](NC(=O)[C@H](Cc1ccccc1)NC(=O)[C@H](CCC(=O)O)NC(=O)[C@H](CCCCN)NC(=O)[C@H](C)NC(=O)[C@H](C)NC(=O)[C@H](CCC(N)=O)NC(=O)CNC(=O)[C@H](CCC(=O)O)NC(=O)[C@H](CC(C)C)NC(=O)[C@H](Cc1ccc(O)cc1)NC(=O)[C@H](CO)NC(=O)[C@H](CO)NC(=O)[C@@H](NC(=O)[C@H](CC(=O)O)NC(=O)[C@H](CO)NC(=O)[C@@H](NC(=O)[C@H](Cc1ccccc1)NC(=O)[C@@H](NC(=O)CNC(=O)[C@H](CCC(=O)O)NC(=O)[C@H](C)NC(=O)[C@H](Cc1c[nH]cn1)NCc1ccccc1)[C@@H](C)O)[C@@H](C)O)C(C)C)C(=O)N[C@@H](C)C(=O)N[C@@H](Cc1c[nH]c2ccccc12)C(=O)N[C@@H](CC(C)C)C(=O)N[C@H](C(=O)N[C@@H](CCCCN)C(=O)NCC(=O)N[C@@H](CCCNC(=N)N)C(N)=O)C(C)C [drawing 51] |  |
| 4.1 pM | CC[C@H](C)[C@H](NC(=O)[C@H](Cc1ccccc1)NC(=O)[C@H](CCC(=O)O)NC(=O)[C@H](CCCCN)NC(=O)[C@H](C)NC(=O)[C@H](C)NC(=O)[C@H](CCC(N)=O)NC(=O)CNC(=O)[C@H](CCC(=O)O)NC(=O)[C@H](CC(C)C)NC(=O)[C@H](Cc1ccc(O)cc1)NC(=O)[C@H](CO)NC(=O)[C@H](CO)NC(=O)[C@@H](NC(=O)[C@H](CC(=O)O)NC(=O)[C@H](CO)NC(=O)[C@@H](NC(=O)[C@H](Cc1ccccc1)NC(=O)[C@@H](NC(=O)CNC(=O)[C@H](CCC(=O)O)NC(=O)[C@H](C)NC(=O)[C@H](Cc1c[nH]cn1)NC(C)C)[C@@H](C)O)[C@@H](C)O)C(C)C)C(=O)N[C@@H](C)C(=O)N[C@@H](Cc1c[nH]c2ccccc12)C(=O)N[C@@H](CC(C)C)C(=O)N[C@H](C(=O)N[C@@H](CCCCN)C(=O)NCC(=O)N[C@@H](CCCNC(=N)N)C(N)=O)C(C)C |  |
| 3.9 pM | CC[C@H](C)[C@H](NC(=O)[C@H](Cc1ccccc1)NC(=O)[C@H](CCC(=O)O)NC(=O)[C@H](CCCCN)NC(=O)[C@H](C)NC(=O)[C@H](C)NC(=O)[C@H](CCC(N)=O)NC(=O)CNC(=O)[C@H](CCC(=O)O)NC(=O)[C@H](CC(C)C)NC(=O)[C@H](Cc1ccc(O)cc1)NC(=O)[C@H](CO)NC(=O)[C@H](CO)NC(=O)[C@@H](NC(=O)[C@H](CC(=O)O)NC(=O)[C@H](CO)NC(=O)[C@@H](NC(=O)[C@H](Cc1ccccc1)NC(=O)[C@@H](NC(=O)CNC(=O)[C@H](CCC(=O)O)NC(=O)[C@H](C)NC(=O)[C@H](Cc1c[nH]cn1)NCC12CC3CC(CC(C3)C1)C2)[C@@H](C)O)[C@@H](C)O)C(C)C)C(=O)N[C@@H](C)C(=O)N[C@@H](Cc1c[nH]c2ccccc12)C(=O)N[C@@H](CC(C)C)C(=O)N[C@H](C(=O)N[C@@H](CCCCN)C(=O)NCC(=O)N[C@@H](CCCNC(=N)N)C(N)=O)C(C)C |  |
| 3.7 pM | CC[C@H](C)[C@H](NC(=O)[C@H](Cc1ccccc1)NC(=O)[C@H](CCC(=O)O)NC(=O)[C@H](CCCCN)NC(=O)[C@H](C)NC(=O)[C@H](C)NC(=O)[C@H](CCC(N)=O)NC(=O)CNC(=O)[C@H](CCC(=O)O)NC(=O)[C@H](CC(C)C)NC(=O)[C@H](Cc1ccc(O)cc1)NC(=O)[C@H](CO)NC(=O)[C@H](CO)NC(=O)[C@@H](NC(=O)[C@H](CC(=O)O)NC(=O)[C@H](CO)NC(=O)[C@@H](NC(=O)[C@H](Cc1ccccc1)NC(=O)[C@@H](NC(=O)CNC(=O)[C@H](CCC(=O)O)NC(=O)[C@H](C)NC(=O)[C@H](Cc1c[nH]cn1)NCC(C)C)[C@@H](C)O)[C@@H](C)O)C(C)C)C(=O)N[C@@H](C)C(=O)N[C@@H](Cc1c[nH]c2ccccc12)C(=O)N[C@@H](CC(C)C)C(=O)N[C@H](C(=O)N[C@@H](CCCCN)C(=O)NCC(=O)N[C@@H](CCCNC(=N)N)C(N)=O)C(C)C [drawing 47] |  |
| 1 pM | CC[C@H](C)[C@H](NC(=O)[C@H](Cc1ccccc1)NC(=O)[C@H](CCC(=O)O)NC(=O)[C@H](CCCCN)NC(=O)[C@H](C)NC(=O)[C@H](C)NC(=O)[C@H](CCC(N)=O)NC(=O)CNC(=O)[C@H](CCC(=O)O)NC(=O)[C@H](CC(C)C)NC(=O)[C@H](Cc1ccc(O)cc1)NC(=O)[C@H](CO)NC(=O)[C@H](CO)NC(=O)[C@@H](NC(=O)[C@H](CC(=O)O)NC(=O)[C@H](CO)NC(=O)[C@@H](NC(=O)[C@H](Cc1ccccc1)NC(=O)[C@@H](NC(=O)CNC(=O)[C@H](CCC(=O)O)NC(=O)[C@H](C)NC(=O)[C@H](Cc1c[nH]cn1)NCc1ccc(O)cc1)[C@@H](C)O)[C@@H](C)O)C(C)C)C(=O)N[C@@H](C)C(=O)N[C@@H](Cc1c[nH]c2ccccc12)C(=O)N[C@@H](CC(C)C)C(=O)N[C@H](C(=O)N[C@@H](CCCCN)C(=O)NCC(=O)N[C@@H](CCCNC(=N)N)C(N)=O)C(C)C |  |
